Marks after values point to notes of the source that are not given here.
Assays:
Format in all cases: in vivo
Kunming mice [1] = test: Influence on hypnosis effect with pentobarbital sodium doses below the threshold (25 mg/kg i.p.); conditions: pentobarbital sodium 25 mg/kg i.p. 60 min later, sleep observed in 30 min, n = 10
Outline: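 Percentage of mice sleeping within 30 min after subthreshold pentobarbital sodium (25 mg/kg i.p.), defined by loss of righting reflex over 1 min, analysed by χ2. Compound in 0.5% CMC-Na given intragastrically at 25/50/100 mg/kg 60 min before; groups of 10 Kunming mice, both sexes.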

Kunming mice [2] = test: Influence on autonomic activity of normal mice (ZIL-2 mice autonomic activity meter, counts within 10 min); conditions: intragastric, x ± s, n = 10; for Times of activities in 1 h after drug administration/10 min: 1 h after administration; for Times of activities in 2 h after drug administration/10 min: 2 h after administration; for Times of activities in 24 h after drug administration/10 min: 24 h after administration
Outline: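 Activity counts during a 10-min window were taken at 1, 2 and 24 h after dosing in groups of 10 mixed-sex Kunming mice. Compounds were given in 0.5% CMC-Na at 25, 50 or 100 mg/kg. Statistics used Levene's homogeneity test, ANOVA and Dunnett's multiple comparisons.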

Kunming mice [3] = test: Influence on hypnosis effect with pentobarbital sodium doses at the threshold (50 mg/kg i.p.); conditions: pentobarbital sodium 50 mg/kg i.p. 60 min later, x ± s, n = 10
Outline: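 Pentobarbital sodium (0.3%, 50 mg/kg i.p.) injected 60 min after a single intragastric dose (25, 50, 100 mg/kg, 0.5% CMC-Na vehicle) in Kunming mice, 10 per group, sexes balanced. Onset and length of sleep (righting reflex lost over 1 min) analysed by ANOVA; sleeping incidence by χ2 test.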

[4] = test drug 25 mg/kg intragastric single dose
[5] = test drug 50 mg/kg intragastric single dose
[6] = test drug 100 mg/kg intragastric single dose
[7] = 25 mg/kg intragastric single dose
[8] = 50 mg/kg intragastric single dose
[9] = 100 mg/kg intragastric single dose

| SMILES | Number of sleeping animals (Kunming mice [1]; [4]) | rate of sleeping (%) (Kunming mice [1]; [4]) | Number of sleeping animals (Kunming mice [1]; [5]) | rate of sleeping (%) (Kunming mice [1]; [5]) | Number of sleeping animals (Kunming mice [1]; [6]) | rate of sleeping (%) (Kunming mice [1]; [6]) | Times of activities in 1 h after drug administration/10 min (Kunming mice [2]; 25 mg/kg) | Times of activities in 2 h after drug administration/10 min (Kunming mice [2]; 25 mg/kg) | Times of activities in 24 h after drug administration/10 min (Kunming mice [2]; 25 mg/kg) | Times of activities in 1 h after drug administration/10 min (Kunming mice [2]; 50 mg/kg) | Times of activities in 2 h after drug administration/10 min (Kunming mice [2]; 50 mg/kg) | Times of activities in 24 h after drug administration/10 min (Kunming mice [2]; 50 mg/kg) | Times of activities in 1 h after drug administration/10 min (Kunming mice [2]; 100 mg/kg) | Times of activities in 2 h after drug administration/10 min (Kunming mice [2]; 100 mg/kg) | Times of activities in 24 h after drug administration/10 min (Kunming mice [2]; 100 mg/kg) | duration of sleep (Kunming mice [3]; [7]) [min] | time to sleep (Kunming mice [3]; [7]) [min] | duration of sleep (Kunming mice [3]; [8]) [min] | time to sleep (Kunming mice [3]; [8]) [min] | duration of sleep (Kunming mice [3]; [9]) [min] | further results |
| --- | --- | --- | --- | --- | --- | --- | --- | --- | --- | --- | --- | --- | --- | --- | --- | --- | --- | --- | --- | --- | --- |
| COc1ccc(-c2cc(=O)c3c(O)c(OC)c(OC)c(OC)c3o2)cc1OC [Example 11, 5-hydroxyl-6,7,8,3′,4′-penta methoxyl-flavone] | 5 | 50** % | 6 | 60** % | 8 | 80*** % | 243.1 ± 53.5 /10 min | 237.3 ± 45.3 /10 min | 291.7 ± 72.5 /10 min | 187.2 ± 41.4 /10 min | 179.7 ± 46.0 /10 min | 287.8 ± 89.1 /10 min | 115.9 ± 48.5 /10 min | 126.7 ± 48.7 /10 min | 315.2 ± 75.4 /10 min | 47.25 ± 14.42 | 3.42 ± 1.37 | 63.75 ± 20.27 | 3.13 ± 1.21 | 78.54 ± 19.27 | time to sleep (Kunming mice [3]; [9]): 2.13 ± 1.33 min |
| CCc1cc(C2CC(=O)c3cc([N+](=O)[O-])c(SC#N)c(C4CCNC4)c3O2)ccc1C(=O)c1ccccc1 (stereo not drawn) [Example 54] | 3 | 30% | 5 | 50** % | 7 | 70** % | 307.3 ± 65.2 /10 min | 287.3 ± 72.9 /10 min | 331.2 ± 67.4 /10 min | 252.8 ± 62.1 /10 min | 240.2 ± 62.6 /10 min | 320.7 ± 75.1 /10 min | 205.3 ± 42.8 /10 min | 198.3 ± 48.5 /10 min | 315.3 ± 79.2 /10 min | 35.81 ± 17.2 | 4.84 ± 1.64 | 43.53 ± 14.97 | 4.33 ± 1.87 | 47.53 ± 15.92 | time to sleep (Kunming mice [3]; [9]): 3.63 ± 1.54 min |
| CCCc1ccc(C2CC(=O)c3c(O)cc([N+](=O)[O-])cc3O2)cc1OC (stereo not drawn) [Example 61] | 5 | 50** % | 6 | 60** % | 8 | 80*** % | 317.3 ± 50.1 /10 min | 289.4 ± 40.2 /10 min | 301.9 ± 77.5 /10 min | 295.1 ± 41.9 /10 min | 250.7 ± 42.8 /10 min | 300.2 ± 91.3 /10 min | 287.1 ± 45.9 /10 min | 221.5 ± 45.8 /10 min | 317.9 ± 80.3 /10 min | 38.44 ± 15.12 | 4.42 ± 1.43 | 58.53 ± 27.42 | 3.92 ± 1.31 | 58.47 ± 24.40 | time to sleep (Kunming mice [3]; [9]): 3.79 ± 1.44 min |
| COc1ccc(-c2cc(=O)c3c(OC)c(OC)c(OC)cc3o2)cc1OC [Example 10, 5,6,7,3′,4′-penta methoxyl-flavone] | 2 | 20% | 5 | 50** % | 6 | 60** % | 289.3 ± 50.1 /10 min | 275.6 ± 44.1 /10 min | 315.6 ± 76.3 /10 min | 257.2 ± 61.3 /10 min | 260.1 ± 58.2 /10 min | 325.3 ± 80.2 /10 min | 131.2 ± 30.8 /10 min | 231.6 ± 44.2 /10 min | 304.1 ± 82.5 /10 min | 31.72 ± 21.73 | 5.42 ± 1.58 | 39.41 ± 21.74 | 3.90 ± 1.34 | 59.21 ± 22.41 | time to sleep (Kunming mice [3]; [9]): 3.81 ± 1.63 min |

Reference: patent publication US9669003B2, “Use of flavone and flavanone derivatives in preparation of sedative and hypnotic drugs” (priority 2012, dated 2017)
